Experiments:
[1] = Ethyl glucuronide levels in postmortem urine by SPE and HPLC-PED; set-up: species or system human; settings: in vivo
Protocol: A ternary gradient solvent delivery pump 106 (Model 8800; Spectra Physics, Mountain View, Calif.) equipped with mixing chamber 104 and on-line degasser unit 102 (Model KT-35M; Shodex, Clear Brook, Va.) were used to provide solvent delivery to analytical column 110. In certain embodiments, isocratic separations are performed using a 1% acetic acid/water:acetonitrile (98:2, v/v) mobile phase set to a flow rate of 1.0 mL ? min-1. Injection valve 108 (Model 7010; Rheodyne, Rohnert Park, Calif.) is fitted with a 50 μL injection loop. Separations can be performed using any suitable analytical column, selected based upon the glucuronide(s) of interest. For example, a reversed-phase (C18; 250×4.6 mm, 5 μm, 100 Å) Denali column (Vydac, Columbia, Md.) with guard column (C18; 7.5×4.6 mm, 5 μm; Vydac) can be used, or a bonded-phase silica column comprising a C18 functional group bonded to its surface using a sulfonamide group coupled to an ether linkage (DIONEX® PA column, DIONEX®, Sunnyvale, Calif.) can be used. Post-column addition of NaOH 112 (for example, 600 mM NaOH), necessary to promote PED-activity, was accomplished by a reagent delivery module (RDM, Dionex, Sunnyvale, Calif.). […]
All urine samples (1.0 mL) were pretreated with 100 μL of 3 M HCl and 3 mL acetonitrile. […] The reconstituted solution was diluted further to bring EtG within the linear range of quantitation. […]

[2] = after alcohol consumption; cited from earlier work

Q: With `CCO[C@@H]1O[C@H](C(=O)O)[C@@H](O)[C@H](O)[C@H]1O` [EtG, Ethyl glucuronide] as the molecule, how does the “EtG levels in postmortem samples” value [1] read?
A: 3 to 700 µg/mL

Q: What about the “period of detection after the complete elimination of alcohol from the body” value [2] of the same molecule?
A: up to 80 h
